Patent publication US20100267561A1, “HERBICIDAL PYRIDAZINONE DERIVATIVES” (priority 2007, published 2010)

Key:
Assay in all cases: Test B pre-/postemergence plant response
Format in all cases: in vivo
[1] = tested on: blackgrass (Alopecurus myosuroides); settings: for Blackgrass plant response rating: 8 g ai/ha, postemergence, 0-100 scale; for Plant response rating, Blackgrass: Postemergence
Text: (§1) Seeds of plant species selected from blackgrass (Alopecurus myosuroides), downy bromegrass (Bromus tectorum), green foxtail (Setaria viridis), Italian ryegrass (Lolium multiflorum), wheat (Triticum aestivum), wild oat (Avena fatua), catchweed bedstraw (Galium aparine), bermudagrass (Cynodon dactylon), surinam grass (Brachiaria decumbens), cocklebur (Xanthium strumarium), corn (Zea mays), large crabgrass (Digitaria sanguinalis), woolly cupgrass (Eriochloa villosa), giant foxtail (Setaria faberii), goosegrass (Eleusine indica), johnsongrass (Sorghum halepense), kochia (Kochia scoparia), lambsquarters (Chenopodium album), morningglory (Ipomoea coccinea), eastern black (E.B.) nightshade (Solanum ptycanthum), yellow nutsedge (Cyperus esculentus), pigweed (Amaranthus retroflexus), common ragweed (Ambrosia elation), Russian thistle (Salsola iberica), soybean (Glycine max), common (oilseed) sunflower (Helianthus annuus), and velvetleaf (Abutilon theophrasti) were planted and treated preemergence with test chemicals formulated in a non-phytotoxic solvent mixture which included a surfactant.
(§2) At the same time, plants selected from these crop and weed species and also winter barley (Hordeum vulgare), canarygrass (Phalaris minor), chickweed (Stellaria media) and windgrass (Apera spica-venti) were treated with postemergence applications of some of the test chemicals formulated in the same manner. Plants ranged in height from 2 to 18 cm (1- to 4-leaf stage) for postemergence treatments.
(§3) Plant species in the flooded paddy test consisted of rice (Oryza sativa), umbrella sedge (Cyperus difformis), ducksalad (Heteranthera limosa) and barnyardgrass (Echinochloa crus-galli) grown to the 2-leaf stage for testing. At time of treatment, test pots were flooded to 3 cm above the soil surface, treated by application of test compounds directly to the paddy water, and then maintained at that water depth for the duration of the test. Treated plants and controls were maintained in a greenhouse for 13 to 15 days, after which time all species were compared to controls and visually evaluated. Plant response ratings, summarized in Table B, are based on a scale of 0 to 100 where 0 is no effect and 100 is complete control. A dash (-) response means no test result.

[2] = tested on: cocklebur (Xanthium strumarium); settings: for Cocklebur plant response rating: 8 g ai/ha, postemergence, 0-100 scale; for Plant response rating, Cocklebur: Postemergence
Text: as §1, §2, §3

[3] = tested on: common ragweed (Ambrosia elation); settings: for Ragweed plant response rating: postemergence, 0-100 scale; for Plant response rating, Ragweed: Postemergence
Text: as §1, §2, §3

corn (Zea mays) = settings: for Corn plant response rating: 8 g ai/ha, postemergence, 0-100 scale; for Plant response rating, Corn: Postemergence
Text: as §1, §2, §3

[4] = tested on: downy bromegrass (Bromus tectorum); settings: for Bromegrass, Downy plant response rating: 8 g ai/ha, postemergence, 0-100 scale; for Plant response rating, Bromegrass, Downy: Postemergence
Text: as §1, §2, §3

[5] = tested on: green foxtail (Setaria viridis); settings: for Foxtail, Green plant response rating: 8 g ai/ha, postemergence, 0-100 scale; for Plant response rating, Foxtail, Green: Postemergence
Text: as §1, §2, §3

[6] = tested on: surinam grass (Brachiaria decumbens); settings: for Surinam Grass plant response rating: postemergence, 0-100 scale; for Plant response rating, Surinam Grass: Postemergence
Text: as §1, §2, §3

[7] = tested on: wheat (Triticum aestivum); settings: for Wheat plant response rating: postemergence, 0-100 scale; for Plant response rating, Wheat: Postemergence
Text: as §1, §2, §3

wild oat (Avena fatua) = settings: for Oat, Wild plant response rating: postemergence, 0-100 scale; for Plant response rating, Oat, Wild: Postemergence
Text: as §1, §2, §3

[8] = tested on: woolly cupgrass (Eriochloa villosa); settings: for Cupgrass, Woolly plant response rating: 8 g ai/ha, postemergence, 0-100 scale; for Plant response rating, Cupgrass, Woolly: Postemergence
Text: as §1, §2, §3

[9] = tested on: yellow nutsedge (Cyperus esculentus); settings: for Nutsedge, Yellow plant response rating: postemergence, 0-100 scale; for Plant response rating, Nutsedge, Yellow: Postemergence
Text: as §1, §2, §3

[10] = 62 g ai/ha, scale 0 to 100, 0 no effect, 100 complete control

Cc1nn(C)c(=O)c(-n2nc(-c3ccc(Cl)cc3)cc2Cl)c1O [Compound 59]
Blackgrass plant response rating [1]: 0
Plant response rating, Blackgrass ([1]; 16 g ai/ha, scale 0 to 100): 60
Plant response rating, Blackgrass ([1]; 31 g ai/ha, scale 0 to 100): 90
Plant response rating, Blackgrass [1, 10]: 90
Cocklebur plant response rating [2]: 0
Plant response rating, Cocklebur ([2]; 16 g ai/ha, scale 0 to 100): 0
Plant response rating, Cocklebur ([2]; 31 g ai/ha, scale 0 to 100): 0
Plant response rating, Cocklebur [2, 10]: 0
Ragweed plant response rating ([3]; 8 g ai/ha): 0
Plant response rating, Ragweed ([3]; 16 g ai/ha, scale 0 to 100): 0
Plant response rating, Ragweed ([3]; 31 g ai/ha, scale 0 to 100): 0
Plant response rating, Ragweed [3, 10]: 0
Corn plant response rating (corn (Zea mays)): 0
Plant response rating, Corn (corn (Zea mays); 16 g ai/ha, scale 0 to 100): 85
Plant response rating, Corn (corn (Zea mays); 31 g ai/ha, scale 0 to 100): 85
Plant response rating, Corn (corn (Zea mays); [10]): 90
Bromegrass, Downy plant response rating [4]: 0
Plant response rating, Bromegrass, Downy ([4]; 16 g ai/ha, scale 0 to 100): 5
Plant response rating, Bromegrass, Downy ([4]; 31 g ai/ha, scale 0 to 100): 5
Plant response rating, Bromegrass, Downy [4, 10]: 10
Foxtail, Green plant response rating [5]: 50
Plant response rating, Foxtail, Green ([5]; 16 g ai/ha, scale 0 to 100): 90
Plant response rating, Foxtail, Green ([5]; 31 g ai/ha, scale 0 to 100): 90
Plant response rating, Foxtail, Green [5, 10]: 95
Surinam Grass plant response rating ([6]; 8 g ai/ha): 75
Plant response rating, Surinam Grass ([6]; 16 g ai/ha, scale 0 to 100): 85
Plant response rating, Surinam Grass ([6]; 31 g ai/ha, scale 0 to 100): 90
Plant response rating, Surinam Grass [6, 10]: 100
Wheat plant response rating ([7]; 8 g ai/ha): 0
Plant response rating, Wheat ([7]; 16 g ai/ha, scale 0 to 100): 15
Plant response rating, Wheat ([7]; 31 g ai/ha, scale 0 to 100): 40
Plant response rating, Wheat [7, 10]: 50
Oat, Wild plant response rating (wild oat (Avena fatua); 8 g ai/ha): 45
Plant response rating, Oat, Wild (wild oat (Avena fatua); 16 g ai/ha, scale 0 to 100): 60
Plant response rating, Oat, Wild (wild oat (Avena fatua); 31 g ai/ha, scale 0 to 100): 70
Plant response rating, Oat, Wild (wild oat (Avena fatua); [10]): 80
Cupgrass, Woolly plant response rating [8]: 55
Plant response rating, Cupgrass, Woolly ([8]; 16 g ai/ha, scale 0 to 100): 60
Plant response rating, Cupgrass, Woolly ([8]; 31 g ai/ha, scale 0 to 100): 65
Plant response rating, Cupgrass, Woolly [8, 10]: 85
Nutsedge, Yellow plant response rating ([9]; 8 g ai/ha): 0
Plant response rating, Nutsedge, Yellow ([9]; 16 g ai/ha, scale 0 to 100): 0
Plant response rating, Nutsedge, Yellow ([9]; 31 g ai/ha, scale 0 to 100): 0
Plant response rating, Nutsedge, Yellow [9, 10]: 0

CCc1cc(-c2ccc(Br)cc2)nn1-c1c(O)cnn(CC(F)(F)F)c1=O [Compound 73]
Blackgrass plant response rating [1]: 60
Plant response rating, Blackgrass ([1]; 16 g ai/ha, scale 0 to 100): 100
Plant response rating, Blackgrass ([1]; 31 g ai/ha, scale 0 to 100): 100
Plant response rating, Blackgrass [1, 10]: 100
Cocklebur plant response rating [2]: 0
Plant response rating, Cocklebur ([2]; 16 g ai/ha, scale 0 to 100): 0
Plant response rating, Cocklebur ([2]; 31 g ai/ha, scale 0 to 100): 0
Plant response rating, Cocklebur [2, 10]: 0
Ragweed plant response rating ([3]; 8 g ai/ha): 0
Ragweed plant response rating ([3]; 16 g ai/ha): 0
Plant response rating, Ragweed ([3]; 31 g ai/ha, scale 0 to 100): 0
Plant response rating, Ragweed [3, 10]: 0
Corn plant response rating (corn (Zea mays)): 95
Plant response rating, Corn (corn (Zea mays); 16 g ai/ha, scale 0 to 100): 100
Plant response rating, Corn (corn (Zea mays); 31 g ai/ha, scale 0 to 100): 100
Plant response rating, Corn (corn (Zea mays); [10]): 100
Bromegrass, Downy plant response rating [4]: 0
Plant response rating, Bromegrass, Downy ([4]; 16 g ai/ha, scale 0 to 100): 0
Plant response rating, Bromegrass, Downy ([4]; 31 g ai/ha, scale 0 to 100): 30
Plant response rating, Bromegrass, Downy [4, 10]: 60
Foxtail, Green plant response rating [5]: 40
Plant response rating, Foxtail, Green ([5]; 16 g ai/ha, scale 0 to 100): 70
Plant response rating, Foxtail, Green ([5]; 31 g ai/ha, scale 0 to 100): 70
Plant response rating, Foxtail, Green [5, 10]: 100
Surinam Grass plant response rating ([6]; 8 g ai/ha): 60
Surinam Grass plant response rating ([6]; 16 g ai/ha): 90
Plant response rating, Surinam Grass ([6]; 31 g ai/ha, scale 0 to 100): 90
Plant response rating, Surinam Grass [6, 10]: 100
Wheat plant response rating ([7]; 8 g ai/ha): 5
Wheat plant response rating ([7]; 16 g ai/ha): 60
Plant response rating, Wheat ([7]; 31 g ai/ha, scale 0 to 100): 90
Plant response rating, Wheat [7, 10]: 95
Oat, Wild plant response rating (wild oat (Avena fatua); 8 g ai/ha): 70
Oat, Wild plant response rating (wild oat (Avena fatua); 16 g ai/ha): 95
Plant response rating, Oat, Wild (wild oat (Avena fatua); 31 g ai/ha, scale 0 to 100): 100
Plant response rating, Oat, Wild (wild oat (Avena fatua); [10]): 100
Cupgrass, Woolly plant response rating [8]: 85
Plant response rating, Cupgrass, Woolly ([8]; 16 g ai/ha, scale 0 to 100): 98
Plant response rating, Cupgrass, Woolly ([8]; 31 g ai/ha, scale 0 to 100): 100
Plant response rating, Cupgrass, Woolly [8, 10]: 100
Nutsedge, Yellow plant response rating ([9]; 8 g ai/ha): 0
Nutsedge, Yellow plant response rating ([9]; 16 g ai/ha): 0
Plant response rating, Nutsedge, Yellow ([9]; 31 g ai/ha, scale 0 to 100): 0
Plant response rating, Nutsedge, Yellow [9, 10]: 0
